From ChEMBL document CHEMBL1138893, “Modulators of the human CCR5 receptor. Part 3: SAR of substituted 1-[3-(4-methanesulfonylphenyl)-3-phenylpropyl]-piperidinyl phenylacetamides” (Bioorg Med Chem Lett, 2006)
pIC50: −log10 of the molar value.

Columns and labels:
in vivo [1] = conditions: rat, iv
in vivo [2] = conditions: rat, iv; remark: listed apart in the source
Description: Clearance in rat at 1-2 mg/kg, iv

in vivo [3] = conditions: rat, iv; remark: listed apart in the source
Description: Half life in rat at 1-2 mg/kg, iv

[4] = target: C-C chemokine receptor type 5 (Homo sapiens, UniProt P51681); test: biochemical
Sequence of C-C chemokine receptor type 5 (P51681 whole entry): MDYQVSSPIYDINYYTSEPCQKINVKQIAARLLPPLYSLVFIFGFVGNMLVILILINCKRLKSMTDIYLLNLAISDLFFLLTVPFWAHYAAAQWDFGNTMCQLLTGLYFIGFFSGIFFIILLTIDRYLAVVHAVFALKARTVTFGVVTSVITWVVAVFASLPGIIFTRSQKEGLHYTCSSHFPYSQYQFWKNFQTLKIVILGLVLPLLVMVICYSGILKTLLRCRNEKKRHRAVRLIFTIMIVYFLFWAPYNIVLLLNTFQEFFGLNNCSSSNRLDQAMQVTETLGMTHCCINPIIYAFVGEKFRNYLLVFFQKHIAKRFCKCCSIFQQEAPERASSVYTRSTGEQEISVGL
Description: Displacement of [125I]MIP-1-alpha to human recombinant CCR5 expressed in CHO cells

Vd (in vivo [1]) [L/kg] | clearance (in vivo [2]) [mL/min/kg] | half-life (in vivo [3]) [h] | pIC50 [4] | SMILES
2.7 | 54 | 0.9 | – | C=CCN(C(=O)Cc1ccc(S(C)(=O)=O)cc1)C1CCN(CCC(c2ccccc2)c2ccccc2)CC1
– | – | – | 6.30 | CCN(C(=O)Cc1ccc(S(C)(=O)=O)cc1)C1CCN(CC[C@H](c2ccc(S(C)(=O)=O)cc2)c2cccc(C(C)(C)C)c2)CC1
– | – | – | 7.25 | CCN(C(=O)Cc1ccc(S(C)(=O)=O)cc1)C1CCN(CC[C@H](c2ccc(S(C)(=O)=O)cc2)c2cccc(C#N)c2)CC1
1.7 | 10 | 2.4 | – | CCN(C(=O)Cc1ccc(S(C)(=O)=O)cc1)C1CCN(CCC(c2ccc(F)cc2)c2ccc(F)cc2)CC1
